What follows are molecules tested against T1, Factor XIIIa (activated FXIII) (Homo sapiens, UniProt P00488) (assay: Inactivation of purified Factor XIIIa (monodansylcadaverine incorporation into dimethylcasein, fluorescence)). Details: purified Factor XIIIa; method of Kitz and Wilson; read-out: Second order rate constant for inactivation.
T1 construct: purchased Enzyme Research Laboratories, Ltd
T1 sequence (P00488 39-732 limits assumed): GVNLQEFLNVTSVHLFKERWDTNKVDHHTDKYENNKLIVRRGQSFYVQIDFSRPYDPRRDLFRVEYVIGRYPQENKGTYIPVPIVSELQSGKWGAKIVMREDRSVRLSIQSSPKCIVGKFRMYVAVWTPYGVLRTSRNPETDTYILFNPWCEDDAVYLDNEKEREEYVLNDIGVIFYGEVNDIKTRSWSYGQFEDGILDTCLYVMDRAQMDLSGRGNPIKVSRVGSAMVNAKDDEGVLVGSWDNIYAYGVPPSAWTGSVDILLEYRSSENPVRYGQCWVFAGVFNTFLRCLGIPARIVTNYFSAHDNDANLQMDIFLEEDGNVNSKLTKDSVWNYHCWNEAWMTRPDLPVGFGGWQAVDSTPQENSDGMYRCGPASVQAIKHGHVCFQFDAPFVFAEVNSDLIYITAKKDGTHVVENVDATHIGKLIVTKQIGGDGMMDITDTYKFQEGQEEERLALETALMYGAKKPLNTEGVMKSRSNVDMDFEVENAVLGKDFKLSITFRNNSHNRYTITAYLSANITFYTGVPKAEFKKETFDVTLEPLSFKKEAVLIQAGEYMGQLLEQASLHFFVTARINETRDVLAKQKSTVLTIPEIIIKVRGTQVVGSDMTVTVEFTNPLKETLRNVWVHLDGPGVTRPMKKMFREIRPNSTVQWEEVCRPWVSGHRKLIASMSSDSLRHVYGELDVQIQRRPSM
Assay type: biochemical
Method: FXIII (0.5 mg/mL, Enzyme Research Laboratories, Ltd.) in 50 mM Tris-HCl pH 7.5 containing 100 mM NaCl, 40 mM CaCl2, 1 mM EDTA and 0.1% poly(ethylene glycol) (app. MW=8000) was activated by incubation with 10 NIH units/mL of human thrombin (Calbiochem) at 37° C. for 20 min. Thrombin was quenched with 20 NIH units/mL of hirudin from Leech (Sigma).
Inhibitor solution in DMSO (14 μL) was added to 120 μL of 250 mM Tris-Cl pH 7.5 containing 40 mM CaCl2 and 1 mM EDTA and the solution was incubated at 37° C. for two minutes. Activated FXIII (5 μL, 0.5 mg/mL) was added and the mixture was incubated at 37° C. for 5 min.
An assay mixture composed of 50 mM Tris-Cl pH 8.0, 10 mM CaCl2, 1 mM EDTA, 0.1% poly(ethylene glycol) (app. MW=1000) and 20 μM monodansylcadaverine was prepared in a spectrofluorometric cell in a final volume of 2880 μL. Dimethylcasein (8 μL, 1% in 50 mM sodium phosphate pH 7.5) was added and the solution was incubated at 37° C. for a few minutes. To assay the residual enzyme activity, 120 μL of the solution containing the enzyme and the inhibitor was transferred to the assay mixture. The covalent incorporation of monodansylcadaverine into casein was monitored by an increase in fluorescence at λexc=360 nm and λem=500 nm as previously described (Curtis, C. G.; Lorand, L. Methods Enzymol. 1976, 45, 177-191). To determine uninhibited enzyme activity, DMSO was used in place of inhibitor solution in the above assay. IC50 were determined by plotting the percent of remaining enzyme activity against logarithm of inhibitor concentration. IC50 is defined here as an inhibitor concentration resulting in 50% enzyme inactivation after 5-min incubation of the enzyme with the inhibitor in the absence of the substrate. Second order rate constants for inactivation were determined using method described by Kitz and Wilson (Kitz, R.; Wilson, I. J. Biol. Chem. 1962, 237, 3245).
`O=S(=O)(NCCCCCCNc1nsc2nccn12)c1ccc(Br)cc1Br` [2,4-dibromo-N-[6-(imidazo[1,2-d][1,2,4]thiadiazol-3-ylamino)hexyl]benzenesulfonamide] showed a kinact/KI of 13000 M⁻¹ s⁻¹.

Same assay, conditions: purified activated FXIII; 50% enzyme inactivation after 5-min incubation with inhibitor at 37° C. in the absence of substrate; read-out: FXIIIa (IC50 in μM)
“4-benzyl-{N^ε-imidazo[1,2-d][1,2,4]thiadiazol- 3-yl-N^α-[(4- methylphenyl)sulfonyl]lysyl}piperidine” was tested, and the IC50 was 5.6 µM. `NC(=O)CN(CCCCCCNc1nsc2nccn12)S(=O)(=O)c1cccc2ccccc12` [1 / NH2 / 1-naphthyl, N^2-[6-(imidazo[1,2-d][1,2,4]thiadiazol-3-ylamino)hexyl]-N^2-(1-naphthylsulfonyl)glycinamide] gave an IC50 of 6 µM. Work on `CCOC(=O)CN(CCCCCCNc1nsc2nccn12)S(=O)(=O)c1cccc2ccccc12` [1 / OEt / 1-naphthyl, Ethyl N-[6-(imidazo[1,2-d][1,2,4]thiadiazol-3-ylamino)hexyl]-N-(1-naphthylsulfonyl) glycinate] yielded an IC50 of 7.4 µM. Molecule `O=C(O)CN(CCCCCCNc1nsc2nccn12)S(=O)(=O)c1cccc2ccccc12` [1 / OH / 1-naphthyl, N-[6-(imidazo[1,2-d][1,2,4]thiadiazol-3-ylamino)hexyl]-N-(1-naphthylsulfonyl)glycine] has an IC50 of 6.8 µM. `NC(=O)CCN(CCCCCCNc1nsc2nccn12)S(=O)(=O)c1ccc(F)cc1F` [2 / NH2 / 2-F-4-F-Ph, N^3-[(2,4-difluorophenyl)sulfonyl]-N^3-[6-(imidazo[1,2-d][1,2,4]thiadiazol-3-ylamino)hexyl]-β-alaninamide] showed an IC50 of 8.9 µM. With `CCOC(=O)CCN(CCCCCCNc1nsc2nccn12)S(=O)(=O)c1ccc(F)cc1F` [2 / OEt / 2-F-4-F-Ph, Ethyl N-[(2,4-difluorophenyl)sulfonyl]-N-[6-(imidazo[1,2-d][1,2,4]thiadiazol-3-ylamino)hexyl]-β-alaninate] the IC50 was 6.8 µM. For `Cc1cc(C)c(S(=O)(=O)NCCCCCCNc2nsc3nccn23)c(C)c1` [2,4,6-TriMe-Ph, N-[6-(imidazo[1,2-d][1,2,4]thiadiazol-3-ylamino)hexyl]-2,4,6-trimethylbenzenesulfonamide], the IC50 was 1.3 µM. In the case of `N#Cc1ccccc1S(=O)(=O)NCCCCCCNc1nsc2nccn12` [2-CN-Ph, 2-cyano-N-[6-(imidazo[1,2-d][1,2,4]thiadiazol-3-ylamino)hexyl]benzenesulfonamide], the IC50 is reported as 2.7 µM. In the case of `NC(=O)c1ccccc1S(=O)(=O)NCCCCCCNc1nsc2nccn12` [2-CONH2-Ph, 2-({[6-(imidazo[1,2-d][1,2,4]thiadiazol-3-ylamino)hexyl]amino}sulfonyl)benzamide], the IC50 is reported as 3 µM. With `CNC(=O)c1ccccc1S(=O)(=O)NCCCCCCNc1nsc2nccn12` [2-CONHMe-Ph, 2-({[6-(imidazo[1,2-d][1,2,4]thiadiazol-3-ylamino)hexyl]amino}sulfonyl)-N-methylbenzamide] the IC50 was 13.8 µM. Work on `O=C(O)c1ccccc1S(=O)(=O)NCCCCCCNc1nsc2nccn12` [2-COOH-Ph, 2-carboxy-N-[6-(imidazo[1,2-d][1,2,4]thiadiazol-3-ylamino)hexyl]benzenesulfonamide] yielded an IC50 of 6.8 µM. For `COC(=O)c1ccccc1S(=O)(=O)NCCCCCCNc1nsc2nccn12` [2-COOMe-Ph, N-[6-(imidazo[1,2-d][1,2,4]thiadiazol-3-ylamino)hexyl]2-methoxycarbonylbenzenesulfonamide], the IC50 was 3.2 µM. For `O=S(=O)(NCCCCCCNc1nsc2nccn12)c1ccc(F)cc1Cl` [2-Cl-4-F-Ph, 2-chloro-4-fluoro-N-[6-(imidazo[1,2-d][1,2,4]thiadiazol-3-ylamino)hexyl]benzenesulfonamide], the IC50 was 0.6 µM. With `O=S(=O)(NCCCCCCNc1nsc2nccn12)c1c(F)ccc(Br)c1F` [2-F-3-Br-6-F-Ph, 3-bromo-2,6-difluoro-N-[6-(imidazol[1,2-d][1,2,4]thiadiazol-3-ylamino)hexyl]benzenesulfonamide] the IC50 was 2.1 µM. In the case of `COc1cc(C)c(S(=O)(=O)NCCCCCCNc2nsc3nccn23)c(C)c1C` [2-Me-3-Me-4-OMe-6-Me-Ph, N-[6-(imidazo[1,2-d][1,2,4]thiadiazol-3-ylamino)hexyl]-4-methoxy-2,3,6-trimethylbenzenesulfonamide], the IC50 is reported as 14 µM. `Cc1cc(S(=O)(=O)NCCCCCCNc2nsc3nccn23)c(C)cc1Cl` [2-Me-4-C1-5-Me-Ph, 4-chloro-2,5-dimethyl-N-[6-(imidazol[1,2-d][1,2,4]thiadiazol-3-ylamino)hexyl]benzenesulfonamide] showed an IC50 of 0.95 µM. `O=[N+]([O-])c1cc(C(F)(F)F)ccc1S(=O)(=O)NCCCCCCNc1nsc2nccn12` [2-NO2-4-CF3-Ph, N-[6-(imidazo[1,2-d][1,2,4]thiadiazol-3-ylamino)hexyl]-2-nitro-4-trifluorobenzenesulfonamide] showed an IC50 of 0.77 µM. For `O=S(=O)(NCCCCCCNc1nsc2nccn12)c1ccc(Br)cc1OC(F)(F)F` [2-OCF3-4-Br, 4-bromo-N-[6-(imidazo[1,2-d][1,2,4]thiadiazol-3-ylamino)hexyl]-2-(trifluoromethoxy)benzenesulfonamide], the IC50 was 0.42 µM. In the case of `COc1cc(C)ccc1S(=O)(=O)NCCCCCCNc1nsc2nccn12` [2-OMe-4-Me-Ph, N-[6-(imidazol[1,2-d][1,2,4]thiadiazol-3-ylamino)hexyl]-2-methoxy-4-methylbenzenesulfonamide], the IC50 is reported as 24 µM. `COc1ccc(Br)cc1S(=O)(=O)NCCCCCCNc1nsc2nccn12` [2-OMe-5-Br-Ph, 5-bromo--N-[6-(imidazo[1,2-d][1,2,4]thiadiazol-3-ylamino)hexyl]-2-methoxybenzenesulfonamide] showed an IC50 of 3.7 µM. For `COc1ccc(OC)c(S(=O)(=O)NCCCCCCNc2nsc3nccn23)c1` [2-OMe-5-Ome-Ph, 2,5-dimethoxy-N-[6-(imidazo[1,2-d][1,2,4]thiadiazol-3-ylamino)hexyl]benzenesulfonamide], the IC50 was > 5 µM. `O=S(=O)(NCCCCCCNc1nsc2nccn12)c1ccc2ccccc2c1` [2-naphthyl, N-[6-(imidazo[1,2-d][1,2,4]thiadiazol-3-ylamino)hexyl]naphthalene-2-sulfonamide] showed an IC50 of 1.3 µM. `NC(=O)CCCN(CCCCCCNc1nsc2nccn12)S(=O)(=O)c1cccc2ccccc12` [3 / NH2 / 1-naphthyl, 4-[[6-(imidazo[1,2-d][1,2,4]thiadiazol-3-ylamino)hexyl](1-naphthylsulfonyl)amino]butanamide] showed an IC50 of 8.6 µM. `O=S(=O)(NCCCCCCNc1nsc2nccn12)c1cccc(C(F)(F)F)c1` [3-CF3-Ph, N-[6-(imidazo[1,2-d][1,2,4]thiadiazol-3-ylamino)hexyl]-3-trifluoromethylbenzenesulfonamide] gave an IC50 of 4.7 µM. Work on `O=C(O)c1cccc(S(=O)(=O)NCCCCCCNc2nsc3nccn23)c1` [3-COOH-Ph, 3-carboxy-N-[6-(imidazo[1,2-d][1,2,4]thiadiazol-3-ylamino)hexyl]benzenesulfonamide] yielded an IC50 of 13.7 µM. `O=S(=O)(NCCCCCCNc1nsc2nccn12)c1ccc(Br)cc1` [4-Br-Ph, 4-bromo-N-[6-(imidazo[1,2-d][1,2,4]thiadiazol-3-ylamino)hexyl]benzenesulfonamide] was tested, and the IC50 was 0.93 µM. `N#Cc1ccc(S(=O)(=O)NCCCCCCNc2nsc3nccn23)cc1` [4-CN-Ph, 4-cyano-N-[6-(imidazo[1,2-d][1,2,4]thiadiazol-3-ylamino)hexyl]benzenesulfonamide] showed an IC50 of 1.6 µM. For `O=C(O)c1ccc(S(=O)(=O)NCCCCCCNc2nsc3nccn23)cc1` [4-COOH-Ph, 4-carboxy-N-[6-(imidazo[1,2-d][1,2,4]thiadiazol-3-ylamino)hexyl]benzenesulfonamide], the IC50 was 11.4 µM. Molecule `COc1ccc(S(=O)(=O)NCCCCCCNc2nsc3nccn23)cc1` [4-OMe-Ph, N-[6-(imidazo[1,2-d][1,2,4]thiadiazol-3-ylamino)hexyl]-4-methoxybenzenesulfonamide] has an IC50 of 1.4 µM.
